# In ChEMBL document CHEMBL1131593, “Correlation of human jejunal permeability (in vivo) of drugs with experimentally and theoretically derived parameters. A multivariate data analysis approach” (J Med Chem, 1998):
# Values joined by “and” are separate entries in the source; they are usually repeats but may differ in a detail not shown here. Equal entries are not always repeated.
# Experiments:
# physchem [1] = assay: physchem
# [2] = octanol/water
# [3] = Partition coefficient value and its ionic species.; format: ADME; conditions: octanol/water
# physchem [4] = assay: physchem; remark: listed apart in the source
# [5] = Distribution coefficient in octanol/water at pH 6.5; format: physicochemical; conditions: read-out: Log D6.5
# [6] = Distribution coefficient in octanol/water at pH 5.5; format: physicochemical; conditions: read-out: Log D5.5
# physchem [7] = conditions: octanol/water
# [8] = Distribution coefficient in octanol/water at pH 7.4; format: physicochemical; conditions: read-out: Log D7.4
# [9] = pKa value of the compound. (extrapolated values); format: physicochemical
# physchem [10] = conditions: octanol/water, pH 6.5
# physchem [11] = conditions: octanol/water, pH 7.4
# physchem [12] = conditions: octanol/water, pH 5.5
# [13] = octanol/water; remark: listed apart in the source
# physchem [14] = conditions: octanol/water; remark: listed apart in the source
GOF [2],Log Pion [3],logD [5],logD [6],logP (physchem [7]),logD [8],SMILES,also measured
1.3,< -2,< -2,< -2,< -2,< -2,C[C@](N)(Cc1ccc(O)c(O)c1)C(=O)O [METHYLDOPA],pKa (physchem [4]): 12.7
0.9,-0.63,-0.5,-0.6,2.07,0,COCCc1ccc(OC[C@@H](O)CNC(C)C)cc1 [(S)-METOPROLOL],–
2.6,-2.07,-1.6,-1.6,-1.55,-1.6,CC(C)C[C@H](N)C(=O)O [LEUCINE],pKa [9]: 9.61
1.6,-1.07 and -0.99,-1,-1,-0.13,-1,C[C@H](N[C@@H](CCc1ccccc1)C(=O)O)C(=O)N1CCC[C@H]1C(=O)O [ENALAPRILAT ANHYDROUS],pKa [9]: 7.84
0.5,–,< -2,< -2,< -2,< -2,CN1CC(=O)NC1=N [CREATININE],pKa [9]: 4.85
1.7,–,–,–,–,–,NS(=O)(=O)c1cc(C(=O)O)c(NCc2ccco2)cc1Cl [FUROSEMIDE],–
1.1,–,–,–,3.37,–,C[C@H](C(=O)O)c1cccc(C(=O)c2ccccc2)c1 [DEXKETOPROFEN],logD (physchem [10]): 0.8; logD (physchem [11]): 0.1; logD (physchem [12]): 1.8
1.6,–,–,–,-0.17,–,NS(=O)(=O)c1cc2c(cc1Cl)NCNS2(=O)=O [HYDROCHLOROTHIAZIDE],–
3.1,–,–,–,–,–,CC1(C)S[C@@H]2[C@H](NC(=O)[C@H](N)c3ccc(O)cc3)C(=O)N2[C@H]1C(=O)O [AMOXICILLIN],logD (physchem [10]): -1.7; logD (physchem [11]): -1.6; logP [13]: -1.71; pKa (physchem [1]): 9.61; logD (physchem [12]): -1.7
1.6,–,–,–,–,–,CC(C)NC[C@H](O)COc1ccc(CC(N)=O)cc1 [ATENOLOL],–
1.4,< -2,< -2,< -2,< -2,< -2,N[C@@H](Cc1ccc(O)c(O)c1)C(=O)O [LEVODOPA],pKa (physchem [4]): 12.7

SMILES,GOF [2],Log Pion [3],logD [5],logD [6],logP (physchem [7]),logD [8],also measured
Cc1cc(=O)n(-c2ccccc2)n1C [ANTIPYRINE],1.2,–,–,–,–,–,pKa (physchem [1]): 1.44
CC(C)(C)NC[C@H](O)c1cc(O)cc(O)c1 [TERBUTALINE],3.3,–,-1.3,-1.3,-0.09,-1.1,pKa (physchem [4]): 11.1
CC(C)NC[C@H](O)COc1cccc2ccccc12.Cl [PROPRANOLOL HYDROCHLORIDE],0.9,–,–,–,–,–,–
CC(C)n1c(/C=C/[C@@H](O)C[C@@H](O)CC(=O)O)c(-c2ccc(F)cc2)c2ccccc21 [FLUVASTATIN SODIUM],1.2,–,–,–,4.17,–,logD (physchem [10]): 2; logD (physchem [11]): 1.4; logPion (physchem [14]): 1.12; pKa (physchem [1]): 4.31; logD (physchem [12]): 3
